Laboratory results: BindingDB's records for doi:10.1021/jm011007+ (University of Perugia, 2002)
Values joined by “and” are separate entries in the source; they are usually repeats but may differ in a detail not shown here. Equal values may be shown once.

Assays:
[1] = molecular target: Sodium-dependent serotonin transporter (Homo sapiens, UniProt P31645); assay: Inhibition of [125I]RTI-55 binding to human SERT in clonal cells
[2] = molecular target: Sodium-dependent dopamine transporter (Homo sapiens, UniProt Q01959); assay: Inhibition of radioligand [125I]RTI-55 binding to human Dopamine transporter in clonal cells
Sequence of Sodium-dependent dopamine transporter (Q01959 whole entry): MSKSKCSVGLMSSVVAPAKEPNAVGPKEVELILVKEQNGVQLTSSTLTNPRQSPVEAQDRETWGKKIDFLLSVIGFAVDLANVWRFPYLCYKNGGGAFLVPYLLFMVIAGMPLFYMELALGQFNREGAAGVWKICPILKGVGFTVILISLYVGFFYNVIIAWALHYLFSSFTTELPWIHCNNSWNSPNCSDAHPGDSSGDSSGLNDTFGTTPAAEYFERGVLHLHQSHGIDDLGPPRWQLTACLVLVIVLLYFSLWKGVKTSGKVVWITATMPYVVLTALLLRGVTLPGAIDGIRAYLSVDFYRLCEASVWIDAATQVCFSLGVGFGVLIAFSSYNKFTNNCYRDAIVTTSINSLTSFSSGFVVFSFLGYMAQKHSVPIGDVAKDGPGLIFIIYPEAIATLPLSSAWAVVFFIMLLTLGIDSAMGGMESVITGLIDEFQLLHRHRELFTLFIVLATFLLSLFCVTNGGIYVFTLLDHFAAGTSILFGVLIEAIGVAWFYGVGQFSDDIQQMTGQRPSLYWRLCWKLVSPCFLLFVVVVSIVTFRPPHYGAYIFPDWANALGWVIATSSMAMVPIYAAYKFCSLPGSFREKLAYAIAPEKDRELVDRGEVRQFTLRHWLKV

Sequence of Sodium-dependent serotonin transporter (P31645 whole entry): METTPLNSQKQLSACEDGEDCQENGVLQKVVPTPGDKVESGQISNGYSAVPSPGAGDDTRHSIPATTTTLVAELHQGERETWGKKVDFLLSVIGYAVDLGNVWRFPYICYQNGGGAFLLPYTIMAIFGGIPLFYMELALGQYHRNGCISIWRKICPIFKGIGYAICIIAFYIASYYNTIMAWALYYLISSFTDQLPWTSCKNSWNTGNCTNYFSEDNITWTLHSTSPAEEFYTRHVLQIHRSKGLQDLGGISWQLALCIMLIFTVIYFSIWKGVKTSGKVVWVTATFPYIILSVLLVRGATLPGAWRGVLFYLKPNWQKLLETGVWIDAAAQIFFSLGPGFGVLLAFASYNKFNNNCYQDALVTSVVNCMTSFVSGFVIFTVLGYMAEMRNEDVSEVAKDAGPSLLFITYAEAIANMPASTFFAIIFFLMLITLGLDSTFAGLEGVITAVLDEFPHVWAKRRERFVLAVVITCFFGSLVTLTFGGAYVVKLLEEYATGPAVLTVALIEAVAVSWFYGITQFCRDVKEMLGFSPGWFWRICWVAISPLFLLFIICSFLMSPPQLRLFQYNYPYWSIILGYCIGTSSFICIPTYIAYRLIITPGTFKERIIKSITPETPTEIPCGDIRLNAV

| SMILES | Kd [1] | Kd [2] [nM] |
| --- | --- | --- |
| Fc1ccc(C(OCCN2CCN(C/C=C/c3ccccc3)CC2)c2ccc(F)cc2)cc1 | 954 nM and 363 nM | – |
| Fc1ccc(CN(CCCN2CCN(CCCc3ccccc3)CC2)c2ccccn2)cc1 | 282 nM | 11 |
| COc1ccc(OC)c(/C=C/CN2CCN(CCOC(c3ccc(F)cc3)c3ccc(F)cc3)CC2)c1 | 182 nM | 3.8 |
| Fc1ccc(C(OCCN2CCN(C/C=C/Cc3ccccc3)CC2)c2ccc(F)cc2)cc1 | 72 nM | 5.1 |
| c1ccc(CCCN2CCN(CCCN(Cc3ccccc3)c3ccccc3)CC2)cc1 | 759 nM and 758 nM | 10 |
| Fc1ccc(CCCN2CCN(CCOC(c3ccccc3)c3ccc(F)cc3)CC2)cc1 (stereo unspecified) | 468 nM | 31 |
| COc1ccc(N(CCN2CCN(CCCc3ccccc3)CC2)Cc2ccccc2)cc1 | 257 nM | 912 |
| COc1ccc(C(OCCN2CCN(C/C=C/c3ccccc3)CC2)c2ccccc2)cc1 (stereo unspecified) | 692 nM | – |
| COc1ccc(CN(CCN2CCN(C/C=C/c3ccccc3)CC2)c2ccccn2)cc1 | 229 nM | 2190 |
| O=C(/C=C/c1ccccc1Cl)N1CCN(CCOC(c2ccc(F)cc2)c2ccc(F)cc2)CC1 | 170 nM | 724 |
| COc1ccc(CN(CCCN2CCN(CCCc3ccccc3)CC2)c2ccccn2)cc1 | 59 nM | 16 |
| O=C(/C=C/c1c(Cl)cccc1Cl)N1CCN(CCOC(c2ccc(F)cc2)c2ccc(F)cc2)CC1 | 209 nM | 1510 |
| Cc1ccc(CN(CCN2CCN(CCCc3ccccc3)CC2)c2ccccc2)cc1 | 813 nM | 427 |
| COc1ccc(OC)c(/C=C/C(=O)N2CCN(CCOC(c3ccc(F)cc3)c3ccc(F)cc3)CC2)c1 | 204 nM | 562 |
| Fc1ccc(/C=C/CN2CCN(CCOC(c3ccccc3)c3ccccc3)CC2)cc1 | 1320 nM | 16 |
| Fc1ccc(CCCN2CCN(CCOC(c3ccc(F)cc3)c3ccc(F)cc3)CC2)cc1 | 363 nM | 5.6 |
| c1ccc(CCCN2CCN(CCN(Cc3ccccc3)c3ccccc3)CC2)cc1 | 1200 nM | 219 |
| Fc1ccc(CCCN2CCN(CCOC(c3ccccc3)c3ccccc3)CC2)cc1 | 1820 nM | 40 |
| Fc1ccc(CN(CCN2CCN(CCCc3ccccc3)CC2)c2ccc(F)cc2)cc1 | 269 nM | 52 |
| Cc1ccc(C(OCCN2CCN(C/C=C/c3ccccc3)CC2)c2ccccc2)cc1 (stereo unspecified) | 1120 nM | 112 |
| Fc1ccc(/C=C/CN2CCN(CCOC(c3ccccc3)c3ccc(F)cc3)CC2)cc1 (stereo unspecified) | 200 nM | 23 |
| Cc1ccc(/C=C/CN2CCN(CCOC(c3ccc(F)cc3)c3ccc(F)cc3)CC2)cc1 | 661 nM | 48 |
| O=C(CCCCN1CCN(CCCc2ccccc2)CC1)N(Cc1ccccc1)c1ccccc1 | 204 nM | 58 |
| c1ccc(CCCN2CCN(CCCCCN(Cc3ccccc3)c3ccccc3)CC2)cc1 | 234 nM | 32 |
| Fc1ccc(C(OCCN2CCN(C/C=C/c3ccccc3)CC2)c2ccc(Cl)cc2Cl)cc1 (stereo unspecified) | 525 nM | 66 |
| c1ccc(CCCN2CCN(CCCN(Cc3ccccc3)c3ccccn3)CC2)cc1 | 2290 nM | 107 |

| SMILES | Kd [1] | Kd [2] [nM] |
| --- | --- | --- |
| c1ccc(CCCN2CCN(CCCCN(Cc3ccccc3)c3ccccc3)CC2)cc1 | 132 nM | 14 |
| CN(CCc1ccccc1)CCN1CCN(CCCc2ccccc2)CC1 | 2630 nM | 550 |
| COc1ccc(CN(CCN2CCN(CCCc3ccccc3)CC2)c2ccccn2)cc1 | 162 nM | 219 |
| O=C(/C=C/c1ccc(Cl)cc1)N1CCN(CCOC(c2ccc(F)cc2)c2ccc(F)cc2)CC1 | 72 nM | 427 |
| Cc1ccc(/C=C/C(=O)N2CCN(CCOC(c3ccc(F)cc3)c3ccc(F)cc3)CC2)cc1 | 195 nM | 794 |
| O=C(CCCN1CCN(CCCc2ccccc2)CC1)N(Cc1ccccc1)c1ccccc1 | 525 nM | 28 |
| Fc1ccc(C(OCCN2CCN(C/C=C/c3ccc(Cl)cc3)CC2)c2ccc(F)cc2)cc1 | 813 nM | 22 |
| Fc1ccc(C(OCCN2CCN(C/C=C/c3ccccc3)CC2)c2ccc(Cl)cc2)cc1 (stereo unspecified) | 191 nM | 3.9 |
| COc1ccc(N(CCN2CCN(C/C=C/c3ccccc3)CC2)Cc2ccccc2)cc1 | 282 nM | – |
| Fc1ccc(C(OCCN2CCN(C/C=C/c3ccccc3)CC2)c2ccccc2)cc1 (stereo unspecified) | 214 nM | 33 |
| Brc1ccc(CN(CCN2CCN(CCCc3ccccc3)CC2)c2ccc(Br)cc2)cc1 | 1620 nM | 977 |
| C(=C\c1ccccc1)/CN1CCN(CCN(Cc2ccccc2)c2ccccc2)CC1 | 603 nM | 447 |
| Fc1ccc(CN(CCN2CCN(CCCc3ccccc3)CC2)c2ccccn2)cc1 | 229 nM | 65 |
| COc1cccc(C(OCCN2CCN(C/C=C/c3ccccc3)CC2)c2cccc(Br)c2)c1 (stereo unspecified) | 741 nM | 132 |
| Fc1ccc(/C=C/CN2CCN(CCOC(c3ccc(F)cc3)c3ccc(F)cc3)CC2)cc1 | 229 nM | 3.9 |
| c1ccc(CCCN2CCN(CCN(Cc3ccccc3)c3ccccn3)CC2)cc1 | 525 nM | 91 |
| C(=C\c1ccccc1)/CN1CCN(CCN(Cc2ccccc2)c2ccccn2)CC1 | 676 nM | 1000 |
| Fc1ccc(CN(CCCN2CCN(CCCc3ccccc3)CC2)c2ccc(F)cc2)cc1 | 331 nM | 14 |
| O=C(CN1CCN(CCCc2ccccc2)CC1)N(Cc1ccccc1)c1ccccc1 | 2880 nM | 1070 |
| Fc1ccc(C(OCCN2CCN(CCCc3ccccc3)CC2)c2ccccc2)cc1 (stereo unspecified) | 617 nM | 20 |
| COc1ccc(/C=C/C(=O)N2CCN(CCOC(c3ccc(F)cc3)c3ccc(F)cc3)CC2)cc1 | 141 nM | 490 |
| Fc1ccc(C(OCCN2CCN(Cc3ccccc3)CC2)c2ccc(F)cc2)cc1 | 182 nM | 98 |
| Fc1ccc(C(OCCN2CCN(CCCc3ccc(Cl)cc3)CC2)c2ccc(F)cc2)cc1 | 155 nM | 8.1 |
| Clc1ccc(C(OCCN2CCN(C/C=C/c3ccccc3)CC2)c2ccc(Cl)cc2)cc1 | 331 nM | 38 |
| O=C(CCCN1CCN(CCCc2ccccc2)CC1)N(Cc1ccccc1)c1ccccn1 | 1320 nM | 562 |
| COc1ccc(/C=C/CN2CCN(CCOC(c3ccc(F)cc3)c3ccc(F)cc3)CC2)cc1 [1-{2-[Bis-(4-fluoro-phenyl)-methoxy]-ethyl}-4-[(E)-3-(4-methoxy-phenyl)-allyl]-piperazine] | 372 nM | 65 |
